PMC11345841, “Exploring 2-Sulfonylpyrimidine Warheads as Acrylamide Surrogates for Targeted Covalent Inhibition: A BTK Story” (Journal of Medicinal Chemistry, 2024)
Read-outs that look alike come from different tables or passages of the source.

Tests used:
[1] = biological target: T1, EPHB6 (Homo sapiens, UniProt O15197); assay: KINOMEscan ScanTK; format: binding
T1 construct: purchased Eurofins DiscoverX KINOMEscan (scanTK)
T1 sequence (O15197 32-1021): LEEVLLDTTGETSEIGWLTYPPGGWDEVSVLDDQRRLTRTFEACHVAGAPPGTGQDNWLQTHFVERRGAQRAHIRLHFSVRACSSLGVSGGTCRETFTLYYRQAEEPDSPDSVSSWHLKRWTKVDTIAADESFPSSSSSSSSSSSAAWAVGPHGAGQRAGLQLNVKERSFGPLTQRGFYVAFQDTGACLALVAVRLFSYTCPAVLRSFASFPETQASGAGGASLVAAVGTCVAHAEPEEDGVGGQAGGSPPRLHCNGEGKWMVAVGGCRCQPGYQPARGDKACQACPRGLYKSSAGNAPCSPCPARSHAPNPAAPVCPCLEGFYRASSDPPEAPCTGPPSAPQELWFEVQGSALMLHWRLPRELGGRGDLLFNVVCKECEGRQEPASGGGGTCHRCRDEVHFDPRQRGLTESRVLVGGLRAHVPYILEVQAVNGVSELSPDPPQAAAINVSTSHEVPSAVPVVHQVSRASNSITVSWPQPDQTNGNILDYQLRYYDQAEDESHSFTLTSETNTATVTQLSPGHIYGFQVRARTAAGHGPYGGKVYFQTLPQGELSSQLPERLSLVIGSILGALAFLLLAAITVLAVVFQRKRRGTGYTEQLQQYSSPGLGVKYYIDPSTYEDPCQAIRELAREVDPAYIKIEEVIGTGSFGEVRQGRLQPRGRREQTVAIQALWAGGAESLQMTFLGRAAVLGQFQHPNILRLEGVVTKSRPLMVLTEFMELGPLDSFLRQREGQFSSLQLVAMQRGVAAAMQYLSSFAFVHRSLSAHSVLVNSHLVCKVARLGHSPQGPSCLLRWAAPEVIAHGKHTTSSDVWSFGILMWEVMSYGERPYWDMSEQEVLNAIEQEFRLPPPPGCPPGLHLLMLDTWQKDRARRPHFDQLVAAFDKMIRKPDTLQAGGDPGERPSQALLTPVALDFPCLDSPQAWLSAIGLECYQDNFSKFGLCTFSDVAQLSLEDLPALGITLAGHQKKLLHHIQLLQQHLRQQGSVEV

[2] = biological target: T2, KIT-autoinhibited (Homo sapiens, UniProt P10721); assay: KINOMEscan ScanTK; format: binding
T2 construct: purchased Eurofins DiscoverX KINOMEscan (scanTK)

[3] = test system: BTK Y223 phosphorylation; assay: Immunoblotting, anti-IgM-induced signaling in OCI-LY7 cells; conditions: 500 nM, 1 h
Experimental: We also investigated the effects of the compounds (at 500 nM) on sIgM signaling by analyzing the phosphorylation status of key signaling molecules activated downstream of the BCR.
Secondary antibodies were horseradish peroxidase-conjugated antibodies (GE Healthcare). Images were captured using the Amersham ImageQuant 800 System and quantified using ImageJ (http://imagej.nih.gov/ij/). Expression of phosphorylated proteins was normalized to the equivalent total protein with values for DMSO/anti-IgM set to 100%.

[4] = biological target: T3, TNK1 (Homo sapiens, UniProt Q13470); assay: KINOMEscan ScanTK; format: binding
T3 construct: purchased Eurofins DiscoverX KINOMEscan (scanTK)
T3 sequence (Q13470 1-666): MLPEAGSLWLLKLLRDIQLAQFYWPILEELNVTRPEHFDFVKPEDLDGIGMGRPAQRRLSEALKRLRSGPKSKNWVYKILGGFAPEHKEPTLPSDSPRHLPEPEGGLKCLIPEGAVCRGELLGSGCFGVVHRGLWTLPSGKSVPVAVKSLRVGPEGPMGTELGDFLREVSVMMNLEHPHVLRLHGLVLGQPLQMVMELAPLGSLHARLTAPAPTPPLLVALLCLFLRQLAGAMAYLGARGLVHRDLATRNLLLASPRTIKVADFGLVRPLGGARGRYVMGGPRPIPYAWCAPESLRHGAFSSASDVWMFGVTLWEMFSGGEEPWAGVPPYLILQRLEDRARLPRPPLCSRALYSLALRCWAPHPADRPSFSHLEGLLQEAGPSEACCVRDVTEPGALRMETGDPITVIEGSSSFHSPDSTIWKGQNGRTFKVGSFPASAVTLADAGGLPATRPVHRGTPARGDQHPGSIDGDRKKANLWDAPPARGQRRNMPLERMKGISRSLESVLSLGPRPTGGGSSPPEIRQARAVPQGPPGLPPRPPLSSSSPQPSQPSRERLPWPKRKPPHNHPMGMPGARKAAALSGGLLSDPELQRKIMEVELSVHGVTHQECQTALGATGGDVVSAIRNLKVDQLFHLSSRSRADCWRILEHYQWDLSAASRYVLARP

[5] = biological target: BTK, full length (2–659) (Homo sapiens, UniProt Q06187); assay: PhosphoSens enzymatic IC50 (AssayQuant); format: biochemical; conditions: for IC50: 1 nM BTK, 1.0 mM ATP; for fold change, 1 nM BTK: IC50 0 min vs 60 min preincubation
From the text: (§1) Biochemical enzymatic IC50 data were generated by AssayQuant Technologies (Marlborough, MA) using the PhosphoSens Platform. […] Reaction rate versus log [inhibitor concentration] data were fitted to the four-parameter logistic equation [drawing 1]

[6] = biological target: T4, EGFR, cytoplasmic domain (669–1210) (Homo sapiens, UniProt P00533); assay: PhosphoSens enzymatic IC50 (AssayQuant); format: biochemical; conditions: no preincubation
T4 construct: GST (N); purchased Carna Biosciences
From the text: as §1

[7] = biological target: T5, EGFR(E746-A750del) (Homo sapiens, UniProt P00533, DEL746-750); assay: KINOMEscan ScanTK; format: binding
T5 construct: purchased Eurofins DiscoverX KINOMEscan (scanTK)

[8] = biological target: T6, INSRR (Homo sapiens, UniProt P14616); assay: KINOMEscan ScanTK; format: binding
T6 construct: purchased Eurofins DiscoverX KINOMEscan (scanTK)

[9] = biological target: T7, EGFR(L747-E749del, A750P) (Homo sapiens, UniProt P00533, A750P/DEL747-749); assay: KINOMEscan ScanTK; format: binding
T7 construct: purchased Eurofins DiscoverX KINOMEscan (scanTK)

[10] = 0 min preincubation IC50 (nM), 0 min preincubation
[11] = 60 min preincubation IC50 (nM), 60 min preincubation

T5 sequence (P00533 with tags, fused parts or gaps DEL746-750 limits assumed): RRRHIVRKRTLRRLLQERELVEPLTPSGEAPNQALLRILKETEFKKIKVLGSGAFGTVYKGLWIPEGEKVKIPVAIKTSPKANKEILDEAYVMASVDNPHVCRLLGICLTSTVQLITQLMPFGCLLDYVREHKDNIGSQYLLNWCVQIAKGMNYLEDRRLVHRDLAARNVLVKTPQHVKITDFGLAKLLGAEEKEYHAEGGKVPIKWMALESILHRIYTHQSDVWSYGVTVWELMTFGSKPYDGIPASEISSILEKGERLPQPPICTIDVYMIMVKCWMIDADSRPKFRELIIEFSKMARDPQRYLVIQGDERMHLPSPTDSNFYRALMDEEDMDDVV
T4 sequence (P00533 669-1210): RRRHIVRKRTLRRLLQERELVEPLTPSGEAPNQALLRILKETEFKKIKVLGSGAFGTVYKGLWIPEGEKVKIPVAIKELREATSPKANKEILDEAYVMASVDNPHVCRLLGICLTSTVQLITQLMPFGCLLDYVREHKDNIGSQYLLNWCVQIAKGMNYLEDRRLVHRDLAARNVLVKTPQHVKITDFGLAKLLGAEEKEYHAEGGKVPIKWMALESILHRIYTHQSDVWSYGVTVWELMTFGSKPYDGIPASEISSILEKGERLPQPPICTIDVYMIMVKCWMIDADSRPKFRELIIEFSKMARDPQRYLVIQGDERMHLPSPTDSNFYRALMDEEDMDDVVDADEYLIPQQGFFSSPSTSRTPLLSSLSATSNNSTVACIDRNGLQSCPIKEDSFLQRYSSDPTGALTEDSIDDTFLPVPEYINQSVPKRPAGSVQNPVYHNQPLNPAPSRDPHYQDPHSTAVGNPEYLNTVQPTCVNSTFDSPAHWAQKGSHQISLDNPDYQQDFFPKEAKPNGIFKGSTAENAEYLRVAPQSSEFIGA
Sequence of BTK, full length (2–659) (Q06187 2-659): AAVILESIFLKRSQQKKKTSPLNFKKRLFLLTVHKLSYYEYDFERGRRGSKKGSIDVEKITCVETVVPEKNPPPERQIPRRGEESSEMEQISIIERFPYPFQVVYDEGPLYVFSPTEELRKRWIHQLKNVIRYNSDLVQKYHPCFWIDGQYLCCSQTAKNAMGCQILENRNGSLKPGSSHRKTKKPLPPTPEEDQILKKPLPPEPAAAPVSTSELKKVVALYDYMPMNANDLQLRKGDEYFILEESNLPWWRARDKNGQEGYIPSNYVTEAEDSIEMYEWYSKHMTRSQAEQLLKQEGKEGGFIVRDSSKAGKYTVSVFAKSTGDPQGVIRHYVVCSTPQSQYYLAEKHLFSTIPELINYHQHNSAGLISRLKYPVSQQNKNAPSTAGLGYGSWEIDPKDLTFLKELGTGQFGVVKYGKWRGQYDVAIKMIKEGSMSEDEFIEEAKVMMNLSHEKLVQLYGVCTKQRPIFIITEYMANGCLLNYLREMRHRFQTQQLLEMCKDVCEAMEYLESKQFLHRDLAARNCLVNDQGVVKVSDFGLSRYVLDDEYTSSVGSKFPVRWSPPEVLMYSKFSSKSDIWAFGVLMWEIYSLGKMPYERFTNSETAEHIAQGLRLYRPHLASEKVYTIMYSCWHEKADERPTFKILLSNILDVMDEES
T7 sequence (P00533 with tags, fused parts or gaps DEL747-749/A750P limits assumed): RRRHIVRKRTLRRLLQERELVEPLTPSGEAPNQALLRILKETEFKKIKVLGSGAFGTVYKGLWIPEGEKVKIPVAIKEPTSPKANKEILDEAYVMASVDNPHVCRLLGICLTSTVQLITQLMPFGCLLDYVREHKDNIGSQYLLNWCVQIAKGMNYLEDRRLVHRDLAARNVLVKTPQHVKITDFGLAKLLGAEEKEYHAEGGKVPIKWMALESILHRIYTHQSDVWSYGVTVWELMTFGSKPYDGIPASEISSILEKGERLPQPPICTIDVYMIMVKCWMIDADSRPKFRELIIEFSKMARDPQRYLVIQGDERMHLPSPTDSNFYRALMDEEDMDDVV
T6 sequence (P14616 27-1297): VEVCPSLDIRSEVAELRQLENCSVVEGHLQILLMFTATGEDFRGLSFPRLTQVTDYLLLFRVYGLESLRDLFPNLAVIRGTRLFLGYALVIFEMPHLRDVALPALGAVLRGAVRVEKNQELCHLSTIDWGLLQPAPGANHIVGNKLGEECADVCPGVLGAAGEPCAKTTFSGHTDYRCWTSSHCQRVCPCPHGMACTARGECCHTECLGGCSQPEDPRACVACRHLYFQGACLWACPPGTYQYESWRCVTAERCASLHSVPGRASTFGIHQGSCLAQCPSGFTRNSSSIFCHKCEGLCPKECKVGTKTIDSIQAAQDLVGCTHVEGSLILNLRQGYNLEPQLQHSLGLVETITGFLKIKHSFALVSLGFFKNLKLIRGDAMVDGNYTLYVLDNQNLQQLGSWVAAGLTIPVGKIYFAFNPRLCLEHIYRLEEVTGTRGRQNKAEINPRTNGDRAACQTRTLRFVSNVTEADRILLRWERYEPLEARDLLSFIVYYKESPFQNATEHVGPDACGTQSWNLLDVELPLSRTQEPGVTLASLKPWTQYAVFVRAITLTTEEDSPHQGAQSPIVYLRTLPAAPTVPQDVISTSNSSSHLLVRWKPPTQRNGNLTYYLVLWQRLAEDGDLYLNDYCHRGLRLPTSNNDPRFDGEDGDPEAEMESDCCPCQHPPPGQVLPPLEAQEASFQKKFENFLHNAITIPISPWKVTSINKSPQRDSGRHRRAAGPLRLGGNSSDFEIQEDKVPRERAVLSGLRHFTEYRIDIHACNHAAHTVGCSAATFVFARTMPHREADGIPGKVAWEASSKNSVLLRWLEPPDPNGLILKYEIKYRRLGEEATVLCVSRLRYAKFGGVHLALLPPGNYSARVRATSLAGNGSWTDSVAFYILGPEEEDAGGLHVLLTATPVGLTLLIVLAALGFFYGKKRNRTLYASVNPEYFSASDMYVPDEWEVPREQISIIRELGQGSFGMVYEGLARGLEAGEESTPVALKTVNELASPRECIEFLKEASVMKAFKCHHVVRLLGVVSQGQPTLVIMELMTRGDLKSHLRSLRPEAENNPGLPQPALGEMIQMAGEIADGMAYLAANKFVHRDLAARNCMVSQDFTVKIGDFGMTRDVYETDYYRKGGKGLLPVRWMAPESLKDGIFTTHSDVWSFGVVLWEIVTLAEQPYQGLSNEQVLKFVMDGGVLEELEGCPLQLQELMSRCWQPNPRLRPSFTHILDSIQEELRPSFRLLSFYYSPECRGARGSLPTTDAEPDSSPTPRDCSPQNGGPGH
T2 sequence (P10721 26-976): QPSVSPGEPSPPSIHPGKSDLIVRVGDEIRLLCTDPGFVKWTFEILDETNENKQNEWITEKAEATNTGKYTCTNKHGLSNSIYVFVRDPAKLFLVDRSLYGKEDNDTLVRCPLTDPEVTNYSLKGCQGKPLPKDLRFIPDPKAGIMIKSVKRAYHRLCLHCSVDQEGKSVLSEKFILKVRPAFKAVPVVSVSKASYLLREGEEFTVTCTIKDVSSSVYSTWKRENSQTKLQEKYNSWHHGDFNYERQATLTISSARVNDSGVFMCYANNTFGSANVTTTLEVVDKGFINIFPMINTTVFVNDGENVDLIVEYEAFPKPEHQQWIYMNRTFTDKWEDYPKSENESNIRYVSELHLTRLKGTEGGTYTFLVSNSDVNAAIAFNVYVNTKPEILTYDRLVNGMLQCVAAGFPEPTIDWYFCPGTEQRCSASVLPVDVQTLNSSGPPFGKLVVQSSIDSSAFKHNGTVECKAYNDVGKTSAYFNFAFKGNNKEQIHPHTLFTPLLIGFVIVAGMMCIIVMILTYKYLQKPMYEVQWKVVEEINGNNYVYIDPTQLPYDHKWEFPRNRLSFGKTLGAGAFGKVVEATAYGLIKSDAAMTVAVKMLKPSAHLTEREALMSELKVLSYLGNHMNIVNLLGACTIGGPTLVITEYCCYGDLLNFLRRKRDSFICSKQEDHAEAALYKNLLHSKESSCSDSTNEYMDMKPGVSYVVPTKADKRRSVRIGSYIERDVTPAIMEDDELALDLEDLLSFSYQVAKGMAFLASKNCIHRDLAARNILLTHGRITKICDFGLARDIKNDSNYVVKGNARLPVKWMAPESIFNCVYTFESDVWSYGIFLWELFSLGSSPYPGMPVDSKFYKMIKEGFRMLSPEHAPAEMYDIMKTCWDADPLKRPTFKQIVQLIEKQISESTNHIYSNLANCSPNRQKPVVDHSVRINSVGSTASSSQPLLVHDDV

SMILES | remaining binding at 1 µM ([1]; @1000nM, read-out: %Control) | remaining binding at 1 µM ([1]; read-out: %Control @1000nM) | remaining binding at 1 µM ([2]; @1000nM, read-out: %Control) | remaining binding at 1 µM ([2]; read-out: %Control @1000nM) | anti-IgM-induced BTK Y223 phosphorylation [3] | remaining binding at 1 µM ([4]; @1000nM, read-out: %Control) | remaining binding at 1 µM ([4]; read-out: %Control @1000nM) | IC50 [5, 10] | IC50 [5, 11] | fold change, 1 nM BTK [5] | difference in %Control versus compound Ib at 1 µM ([1]; @1000nM) | difference in %Control from reference compound Ib at 1 µM ([7]; @1000nM) | remaining binding at 1 µM ([7]; @1000nM, read-out: %Control) | remaining binding at 1 µM ([7]; read-out: %Control @1000nM) | difference in %Control versus compound Ib at 1 µM ([8]; @1000nM) | remaining binding at 1 µM ([8]; @1000nM, read-out: %Control) | remaining binding at 1 µM ([8]; read-out: %Control @1000nM) | difference in %Control versus compound Ib at 1 µM ([9]; @1000nM) | remaining binding at 1 µM ([9]; @1000nM, read-out: %Control) | remaining binding at 1 µM ([9]; read-out: %Control @1000nM) | further results
C=CC(=O)N1CCC[C@@H](n2nc(-c3ccc(Oc4ccccc4)cc3)c3c(N)ncnc32)C1 [Compound 1g, Ibrutinib, reference compound] | 18% | 18% | 88% | 88% | strongly inhibited | 93% | 93% |  |  |  |  |  |  |  |  |  |  |  |  |  | 
Cc1cnc(S(C)(=O)=O)nc1N1CCCC(n2nc(-c3ccc(Oc4ccccc4)cc3)c3c(N)ncnc32)C1 (stereo not shown) [Compound 8a, 1-(1-(5-Methyl-2-(methylsulfonyl)pyrimidin-4-yl)piperidin-3-yl)-3-(4-phenoxyphenyl)-1H-pyrazolo[3,4-d]pyrimidin-4-amine] | 24% | 24% | 100% | 100% |  | 91% | 91% | 6 nM | 0.31 nM | 19.6 | 6% | 88% | 99% | 99% | -2% | 94% | 94% | 79.9% | 83% | 83% | 0 min IC50 (nM), 3 nM EGFR [6]: none of the compounds, 8a, 8b, or 8d, exhibited measurable inhibition; IC50 [6]: > 1000 nM
COC(=O)c1cnc(S(C)(=O)=O)nc1N1CCCC(n2nc(-c3ccc(Oc4ccccc4)cc3)c3c(N)ncnc32)C1 (stereo not shown) [Compound 8b, Methyl 4-(3-(4-Amino-3-(4-phenoxyphenyl)-1H-pyrazolo[3,4-d]pyrimidin-1-yl)piperidin-1-yl)-2-(methylsulfonyl)pyrimidine-5-carboxylate] | 8.9% | 8.9% | 90% | 90% | selectively reduced BTK Y^223 phosphorylation | 88% | 88% | 79 nM | 6.3 nM | 12.5 | -9.1% | 73% | 84% | 84% | 0% | 96% | 96% | 69.9% | 73% | 73% | 0 min IC50 (nM), 3 nM EGFR [6]: none of the compounds, 8a, 8b, or 8d, exhibited measurable inhibition; IC50 [6]: > 1000 nM
CCOC(=O)c1cnc(S(C)(=O)=O)nc1N1CCC[C@@H](n2nc(-c3ccc(Oc4ccccc4)cc3)c3c(N)ncnc32)C1 [Compound 8c, Ethyl (R)-4-(3-(4-Amino-3-(4-phenoxyphenyl)-1H-pyrazolo[3,4-d]pyrimidin-1-yl)piperidin-1-yl)-2-(methylsulfonyl)pyrimidine-5-carboxylate] | 72% | 72% | 94% | 94% | selectively reduced BTK Y^223 phosphorylation | 81% | 81% |  |  |  | 54% | 89% | 100% | 100% | -9% | 87% | 87% | 63.9% | 67% | 67% | 
CNC(=O)c1cnc(S(C)(=O)=O)nc1N1CCCC(n2nc(-c3ccc(Oc4ccccc4)cc3)c3c(N)ncnc32)C1 (stereo not shown) [Compound 8d, 4-(3-(4-Amino-3-(4-phenoxyphenyl)-1H-pyrazolo[3,4-d]pyrimidin-1-yl)piperidin-1-yl)-N-methyl-2-(methylsulfonyl)pyrimidine-5-carboxamide] | 34% | 34% | 100% | 100% |  | 97% | 97% | 3.6 nM | 1.2 nM | 3.1 | 16% | 74% | 85% | 85% | -8% | 88% | 88% | 48.9% | 52% | 52% | 0 min IC50 (nM), 3 nM EGFR [6]: none of the compounds, 8a, 8b, or 8d, exhibited measurable inhibition; IC50 [6]: > 1000 nM
